Laboratory results from PubChem BioAssay (NCI).
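Briefly, cells in 96-well plates were exposed to five compound concentrations for 48 h, and endpoints were estimated by linear interpolation. GI50: concentration for 50% inhibition of growth. At the TGI there is no net growth.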

Columns and labels:
Test in all cases: inhibition of tumour cell growth, NCI panel, 48 h
A549 NSCLC = system: A549 NSCLC
IGROV1 ovarian = system: IGROV1 ovarian
KM12 colon = system: KM12 colon
M14 melanoma = system: M14 melanoma
MALME-3M melanoma = system: MALME-3M melanoma
MOLT-4 leukemia = system: MOLT-4 leukemia
NCI-H460 lung = system: NCI-H460 lung
OVCAR-4 ovarian = system: OVCAR-4 ovarian
RPMI-8226 leukemia = system: RPMI-8226 leukemia
SK-MEL-5 melanoma = system: SK-MEL-5 melanoma

With `CS(=O)c1ccc(-c2nc(-c3ccc(F)cc3)c(-c3ccncc3)[nH]2)cc1` (stereo not given) the GI50 (A549 NSCLC) was 35 µM, the TGI (A549 NSCLC) was > 100 µM and the GI50 (IGROV1 ovarian) was 21.9 µM. For the same molecule, the TGI (IGROV1 ovarian) was > 85.5 µM, the GI50 (KM12 colon) was 35.9 µM and the TGI (KM12 colon) was > 100 µM. For the same molecule, the GI50 (M14 melanoma) was 11.3 µM, the TGI (M14 melanoma) was 43.3 µM and the GI50 (MALME-3M melanoma) was 14.2 µM. The TGI (MALME-3M melanoma) was 64.9 µM, the GI50 (MOLT-4 leukemia) was 28.3 µM and the TGI (MOLT-4 leukemia) was > 96.4 µM. The GI50 (NCI-H460 lung) was 33.5 µM, the TGI (NCI-H460 lung) was > 100 µM and the GI50 (OVCAR-4 ovarian) was 39.7 µM. The TGI (OVCAR-4 ovarian) was > 100 µM, the GI50 (RPMI-8226 leukemia) was 26.2 µM and the TGI (RPMI-8226 leukemia) was 83.6 µM. The GI50 (SK-MEL-5 melanoma) was 20.3 µM and the TGI (SK-MEL-5 melanoma) was 50.5 µM.

`O=[N+]([O-])c1cc(Cl)cc2c1nc(NCCO)c1ccccc12` was tested, and the TGI (A549 NSCLC) was > 100 µM, the TGI (IGROV1 ovarian) was > 100 µM and the TGI (KM12 colon) was 93.7 µM. For the same molecule, the TGI (M14 melanoma) was > 100 µM, the TGI (MALME-3M melanoma) was 57.1 µM and the TGI (MOLT-4 leukemia) was 34 µM. For the same molecule, the TGI (NCI-H460 lung) was 15.7 µM, the TGI (OVCAR-4 ovarian) was > 100 µM and the TGI (RPMI-8226 leukemia) was > 100 µM. The TGI (SK-MEL-5 melanoma) was 3.96 µM.

In the case of `CS(=O)(=O)OCCN(CCOS(C)(=O)=O)c1ccc(C=Nc2ccc3oc(=O)ccc3c2)cc1`, the TGI (A549 NSCLC) is reported as 35.3 µM, the TGI (IGROV1 ovarian) is reported as 53.1 µM and the TGI (KM12 colon) is reported as 30.3 µM. It also gave a TGI (M14 melanoma) of 31.6 µM, a TGI (MALME-3M melanoma) of 23.8 µM and a TGI (MOLT-4 leukemia) of 15.4 µM. For the same molecule, the TGI (NCI-H460 lung) was 5.38 µM, the TGI (OVCAR-4 ovarian) was 41 µM and the TGI (RPMI-8226 leukemia) was 49.1 µM. It also gave a TGI (SK-MEL-5 melanoma) of 32.8 µM.

In the case of `CC(F)(F)c1cc(F)ccc1-c1sc2cc(O)ccc2c1Oc1ccc(/C=C/C(=O)O)cc1`, the GI50 (A549 NSCLC) is reported as 10.3 µM, the TGI (A549 NSCLC) is reported as 29.9 µM and the GI50 (IGROV1 ovarian) is reported as 11.6 µM. It also gave a TGI (IGROV1 ovarian) of 29 µM, a GI50 (KM12 colon) of 4.72 µM and a TGI (KM12 colon) of 18.4 µM. For the same molecule, the GI50 (M14 melanoma) was 4.96 µM, the TGI (M14 melanoma) was 25 µM and the GI50 (MALME-3M melanoma) was 11.6 µM. It also gave a TGI (MALME-3M melanoma) of 44.4 µM, a GI50 (MOLT-4 leukemia) of 10.3 µM and a TGI (MOLT-4 leukemia) of 50 µM. It also gave a GI50 (NCI-H460 lung) of 8.18 µM, a TGI (NCI-H460 lung) of 23.5 µM and a GI50 (OVCAR-4 ovarian) of 12.1 µM. For the same molecule, the TGI (OVCAR-4 ovarian) was 33.2 µM, the GI50 (RPMI-8226 leukemia) was 8.33 µM and the TGI (RPMI-8226 leukemia) was 74.8 µM. It also gave a GI50 (SK-MEL-5 melanoma) of 4.05 µM and a TGI (SK-MEL-5 melanoma) of 15.3 µM.

Molecule `Oc1ccc(/C=N/Nc2nc3ccccc3s2)c(O)c1` has a GI50 (A549 NSCLC) of 2.54 µM, a TGI (A549 NSCLC) of 51.9 µM and a GI50 (IGROV1 ovarian) of 0.904 µM. The TGI (IGROV1 ovarian) was 10.8 µM, the GI50 (KM12 colon) was 2.18 µM and the TGI (KM12 colon) was 15.8 µM. It also gave a GI50 (M14 melanoma) of 1.38 µM, a TGI (M14 melanoma) of 12.1 µM and a GI50 (MALME-3M melanoma) of 1.43 µM. It also gave a TGI (MALME-3M melanoma) of 7.26 µM, a GI50 (MOLT-4 leukemia) of 2.24 µM and a TGI (MOLT-4 leukemia) of 88.1 µM. The GI50 (NCI-H460 lung) was 1.78 µM, the TGI (NCI-H460 lung) was 5.21 µM and the GI50 (OVCAR-4 ovarian) was 0.381 µM. For the same molecule, the TGI (OVCAR-4 ovarian) was 2.93 µM, the GI50 (RPMI-8226 leukemia) was 2.55 µM and the TGI (RPMI-8226 leukemia) was > 100 µM. The GI50 (SK-MEL-5 melanoma) was 3.37 µM and the TGI (SK-MEL-5 melanoma) was > 100 µM.

For `O=C(Nc1cccc2cccnc12)c1ccc(N2C(=O)[C@@H]3[C@H](C2=O)[C@@H]2C=C[C@H]3C2)cc1`, the GI50 (A549 NSCLC) was 26.2 µM, the TGI (A549 NSCLC) was > 100 µM and the GI50 (IGROV1 ovarian) was 32.7 µM. For the same molecule, the TGI (IGROV1 ovarian) was > 100 µM, the GI50 (KM12 colon) was 30.9 µM and the TGI (KM12 colon) was > 100 µM. The GI50 (M14 melanoma) was 34.9 µM, the TGI (M14 melanoma) was > 100 µM and the GI50 (MALME-3M melanoma) was 21.5 µM. For the same molecule, the TGI (MALME-3M melanoma) was > 100 µM, the GI50 (MOLT-4 leukemia) was 22.1 µM and the TGI (MOLT-4 leukemia) was > 66.6 µM. For the same molecule, the GI50 (NCI-H460 lung) was 34.6 µM, the TGI (NCI-H460 lung) was > 100 µM and the GI50 (OVCAR-4 ovarian) was 3.26 µM. The TGI (OVCAR-4 ovarian) was 48.6 µM, the GI50 (RPMI-8226 leukemia) was 23.2 µM and the TGI (RPMI-8226 leukemia) was > 88.2 µM. The GI50 (SK-MEL-5 melanoma) was 13.4 µM and the TGI (SK-MEL-5 melanoma) was 29.6 µM.

Work on `CCCCN(CCCC)CC(C)(C)C(O)c1ccc(OC)c2ccccc12` (stereo not given) yielded a GI50 (A549 NSCLC) of 11.1 µM, a TGI (A549 NSCLC) of 35.3 µM and a GI50 (IGROV1 ovarian) of 1.69 µM. The TGI (IGROV1 ovarian) was 14.1 µM, the GI50 (KM12 colon) was 3.31 µM and the TGI (KM12 colon) was 16.5 µM. It also gave a GI50 (M14 melanoma) of 4.21 µM, a TGI (M14 melanoma) of 17.7 µM and a GI50 (MALME-3M melanoma) of 3.02 µM. It also gave a TGI (MALME-3M melanoma) of 16.6 µM, a GI50 (MOLT-4 leukemia) of 2.68 µM and a TGI (MOLT-4 leukemia) of 11.7 µM. The GI50 (NCI-H460 lung) was 3.52 µM, the TGI (NCI-H460 lung) was 16.5 µM and the GI50 (OVCAR-4 ovarian) was 0.385 µM. For the same molecule, the TGI (OVCAR-4 ovarian) was 23.5 µM, the GI50 (RPMI-8226 leukemia) was 2.5 µM and the TGI (RPMI-8226 leukemia) was 5.93 µM. For the same molecule, the GI50 (SK-MEL-5 melanoma) was 2 µM and the TGI (SK-MEL-5 melanoma) was 4.95 µM.
